The values below are quoted from earlier work in patent US20070128260A1, “Aqueous polymer dispersions for stabilizing actives” (priority 2005, published 2007).

Structures are written as SMILES. Where a name gives a salt, the structure may show the parent alone. Read-outs that look alike come from different tables or passages of the source.

Turning to `Nc1nc(NC2CC2)c2ncn([C@H]3C=C[C@@H](CO)C3)c2n1` [Abacavir sulfate], the water sol. (25° C.) is recorded as 77 mg/mL.

Consider `Nc1nc2c(ncn2COCCO)c(=O)[nH]1` [Acylovir], for which the water sol. (37° C.) is 2.5 mg/mL.

As for `Cc1cn([C@H]2C[C@H](N=[N+]=[N-])[C@@H](CO)O2)c(=O)[nH]c1=O` [Zidovudine], where the note is “25° C.”, the water sol. was 20.1 mg/mL.

Regarding `CC(C)CN(C[C@@H](O)[C@H](Cc1ccccc1)NC(=O)O[C@H]1CCOC1)S(=O)(=O)c1ccc(N)cc1` [Amprenavir], where the note is “25° C.”, the water sol. was 0.04 mg/mL.

`Nc1ccn([C@@H]2CS[C@H](CO)O2)c(=O)n1` [Lamivudine]: where the note is “20° C.”, the water sol. is 70 mg/mL.

Turning to `CC(=O)N[C@H]1[C@H]([C@H](O)[C@H](O)CO)OC(C(=O)O)=C[C@@H]1N=C(N)N` [Zanamivir], the water sol. (20° C.) is listed as 18 mg/mL.

For `CC(C)CN(C[C@@H](OP(=O)(O)O)[C@H](Cc1ccccc1)NC(=O)O[C@H]1CCOC1)S(=O)(=O)c1ccc(N)cc1` [fosamprenavir], the water sol. (25° C.) is reported as 0.31 mg/mL.

`CC(C)[C@H](N)C(=O)OCCOCn1cnc2c(=O)[nH]c(N)nc21` [valacyclovir]: the water sol. (25° C.) is reported as 174 mg/mL.
